From patent US12589156B2, “Benzimidazole and benzimidazolone based protac compounds for the targeted degradation of leucine rich repeat kinase 2 (LRRK2)” (Arvinas Operations, Inc., priority 2023, dated 2026) come the findings set out here.

The assay deals with T1, WT LRRK2 (Homo sapiens, UniProt Q5S007).
T1 construct: endogenous in cells; host or cells: HEK293 (endogenous LRRK2 gene knock-in tagged with HiBit; stably expressing CMV-driven firefly luciferase)
In words: LRRK2 HiBit degradation assay (Nano-Glo Dual Luciferase) in HEK293 cells with HiBit-tagged endogenous LRRK2. It is filed as cell-based. From the text: Biological Assays Exemplary Assay for Testing LRRK2 Degradation Driven by Exemplary Hetero-Bifunctional Compounds Designed to Target LRRK2
The assay measures the degradation of LRRK2 in cells where the C-terminus (3′) of the endogenous gene has been tagged with a HiBit sequence in HEK293 cells. The cells also express firefly lucisferase, expressed from a Cytomegalovirus promoter and introduced into the HiBit tagged cells and stably expressed. The Nano-Glo® Dual Luciferase Reporter Assay System (Promega™, Madison, WI) was utilized.
Day 1—Preparation of Compound and Assay Plates. Two sets of plates were prepared: a triplicate set for the HiBit assay in white 384-well plates and a triplicate set of plate in black 384-well plates for the Alamar Blue cell viability assay. Briefly, the growth media (DMEM+Glutamax-10% fetal bovine serum-1% Penicillin-Streptomicin) from two T128 flasks was aspirated from the flasks. Cells were washed with Dulbecco's Phosphate Buffered Saline (dPBS) and aspirated. Trypsin (3 mL per flask) was added and the flasks were incubated for 2-3 minutes.
Ten mL of OptiMEM—10% fetal bovine-1% penicillin-streptomycin (hereinafter, “OptiMEM media”) was added to the flask and the cells and transferred to a 50 ml conical tube. A cell count (25 ul of cell into Effendorf vial+25 ul of Trypan Blue Stain) was performed and the cell density adjusted to 15,000 cell/45 μl/well (3.33×10^5/mL) in OptiMEM media.
Forty-five microliters of the cell suspension (15,000 cells) was aliquoted to each well of the white 384-well plate. The plates incubated at room temperature for 10 minutes before being placed in the 37° C.+5% CO2 incubator overnight
Day 2—Compound Treatment. Exemplary compounds were prepared at a 1 mM starting concentration and 1:3 serial dilution for 11 points CRC prepared and stored in the freezer. The Master Compound Plate was thawed overnight at room temperature. DMSO (20 μL) was added into column 24 of the Master Compound Plate for negative control and 20 μL of 300 μM of Compound 4 in column 23 as positive control.
Intermediate Compound Plate with 4% DMSO in OptiMEM Media. DMSO was added to warm OptiMEM media to achieve a 4% DMSO solution (approximately 50 mL/plate). One-hundred microliters of the OptiMEM-4% DMSO was aliquoted to each well of 384-Well Deep Well Microplates.
The Master Compound Plate and the Intermediate Compound Plate were spun down.
One microliter of compound from the Master Compound Plate was transferred into the Intermediate plate (a 1:100 dilution). The diluted mixture was mixed and 5 μL transferred into the assay plate (a 1:10 dilution) for the final starting concentration of 1 μM. The Treated Assay plates were incubated for 24 hours at 37° C.+5% CO2. The Master Compound Plate was sealed and store at room temperature for a second run that was performed within a week.
One set of white assay plates was warmed to room temperature (45 minute).
The One Glo luciferase mixture was prepared. The media from white 384-well assay plates was aspirated. Twenty-five μL of the One Glo luciferase mixture was added to each well of the assay plates. The plates were incubated on the bench (room temperature) for 45 minutes, including 10 minutes of shaking at 700 rpm. The luminescence of each plate was read on a plate reader.
1:100 DLR substrate and 1:100 LgBiT Protein dilution were added to the Promega Stop and Glo buffer and mixed just before addition to assay plates. Twenty-five microliters of Stop and Glo mixture was added to each well. Assay plates incubated for at least 45 minutes, including 10 minutes of shaking at 700 rpm. The luminescence of each plate was read on a plate reader.
Analysis of LRRK2 HiBit Screening assays. As mentioned above, plates were run in triplicate and the assay repeated twice (total of 6 replicate for exemplary compounds). For each treatment, measurements were taken for firefly luciferase for cell number, cell viability (Alamar Blue), and Nanoluc for the LRRK2-HiBit quantification. […]

The mark [1] stands for this setting: Table 2, HiBit-tagged LRRK2 in HEK293 cells, 24 hours treatment, starting concentration 1 μM.
[2] abbreviates: Table 2, maximal degradation, HiBit-tagged LRRK2 in HEK293 cells, 24 hours treatment.
Where [3] appears, read: HEK293, Table 2, maximal degradation, HiBit-tagged LRRK2 in HEK293 cells, 24 hours treatment.
[4] abbreviates: HEK293, Table 3, comparison with direct comparators, maximal degradation.
[5] abbreviates: Table 3, comparison with direct comparators, HiBit-tagged LRRK2 in HEK293 cells, 24 hours treatment.

T1 sequence (Q5S007 whole entry): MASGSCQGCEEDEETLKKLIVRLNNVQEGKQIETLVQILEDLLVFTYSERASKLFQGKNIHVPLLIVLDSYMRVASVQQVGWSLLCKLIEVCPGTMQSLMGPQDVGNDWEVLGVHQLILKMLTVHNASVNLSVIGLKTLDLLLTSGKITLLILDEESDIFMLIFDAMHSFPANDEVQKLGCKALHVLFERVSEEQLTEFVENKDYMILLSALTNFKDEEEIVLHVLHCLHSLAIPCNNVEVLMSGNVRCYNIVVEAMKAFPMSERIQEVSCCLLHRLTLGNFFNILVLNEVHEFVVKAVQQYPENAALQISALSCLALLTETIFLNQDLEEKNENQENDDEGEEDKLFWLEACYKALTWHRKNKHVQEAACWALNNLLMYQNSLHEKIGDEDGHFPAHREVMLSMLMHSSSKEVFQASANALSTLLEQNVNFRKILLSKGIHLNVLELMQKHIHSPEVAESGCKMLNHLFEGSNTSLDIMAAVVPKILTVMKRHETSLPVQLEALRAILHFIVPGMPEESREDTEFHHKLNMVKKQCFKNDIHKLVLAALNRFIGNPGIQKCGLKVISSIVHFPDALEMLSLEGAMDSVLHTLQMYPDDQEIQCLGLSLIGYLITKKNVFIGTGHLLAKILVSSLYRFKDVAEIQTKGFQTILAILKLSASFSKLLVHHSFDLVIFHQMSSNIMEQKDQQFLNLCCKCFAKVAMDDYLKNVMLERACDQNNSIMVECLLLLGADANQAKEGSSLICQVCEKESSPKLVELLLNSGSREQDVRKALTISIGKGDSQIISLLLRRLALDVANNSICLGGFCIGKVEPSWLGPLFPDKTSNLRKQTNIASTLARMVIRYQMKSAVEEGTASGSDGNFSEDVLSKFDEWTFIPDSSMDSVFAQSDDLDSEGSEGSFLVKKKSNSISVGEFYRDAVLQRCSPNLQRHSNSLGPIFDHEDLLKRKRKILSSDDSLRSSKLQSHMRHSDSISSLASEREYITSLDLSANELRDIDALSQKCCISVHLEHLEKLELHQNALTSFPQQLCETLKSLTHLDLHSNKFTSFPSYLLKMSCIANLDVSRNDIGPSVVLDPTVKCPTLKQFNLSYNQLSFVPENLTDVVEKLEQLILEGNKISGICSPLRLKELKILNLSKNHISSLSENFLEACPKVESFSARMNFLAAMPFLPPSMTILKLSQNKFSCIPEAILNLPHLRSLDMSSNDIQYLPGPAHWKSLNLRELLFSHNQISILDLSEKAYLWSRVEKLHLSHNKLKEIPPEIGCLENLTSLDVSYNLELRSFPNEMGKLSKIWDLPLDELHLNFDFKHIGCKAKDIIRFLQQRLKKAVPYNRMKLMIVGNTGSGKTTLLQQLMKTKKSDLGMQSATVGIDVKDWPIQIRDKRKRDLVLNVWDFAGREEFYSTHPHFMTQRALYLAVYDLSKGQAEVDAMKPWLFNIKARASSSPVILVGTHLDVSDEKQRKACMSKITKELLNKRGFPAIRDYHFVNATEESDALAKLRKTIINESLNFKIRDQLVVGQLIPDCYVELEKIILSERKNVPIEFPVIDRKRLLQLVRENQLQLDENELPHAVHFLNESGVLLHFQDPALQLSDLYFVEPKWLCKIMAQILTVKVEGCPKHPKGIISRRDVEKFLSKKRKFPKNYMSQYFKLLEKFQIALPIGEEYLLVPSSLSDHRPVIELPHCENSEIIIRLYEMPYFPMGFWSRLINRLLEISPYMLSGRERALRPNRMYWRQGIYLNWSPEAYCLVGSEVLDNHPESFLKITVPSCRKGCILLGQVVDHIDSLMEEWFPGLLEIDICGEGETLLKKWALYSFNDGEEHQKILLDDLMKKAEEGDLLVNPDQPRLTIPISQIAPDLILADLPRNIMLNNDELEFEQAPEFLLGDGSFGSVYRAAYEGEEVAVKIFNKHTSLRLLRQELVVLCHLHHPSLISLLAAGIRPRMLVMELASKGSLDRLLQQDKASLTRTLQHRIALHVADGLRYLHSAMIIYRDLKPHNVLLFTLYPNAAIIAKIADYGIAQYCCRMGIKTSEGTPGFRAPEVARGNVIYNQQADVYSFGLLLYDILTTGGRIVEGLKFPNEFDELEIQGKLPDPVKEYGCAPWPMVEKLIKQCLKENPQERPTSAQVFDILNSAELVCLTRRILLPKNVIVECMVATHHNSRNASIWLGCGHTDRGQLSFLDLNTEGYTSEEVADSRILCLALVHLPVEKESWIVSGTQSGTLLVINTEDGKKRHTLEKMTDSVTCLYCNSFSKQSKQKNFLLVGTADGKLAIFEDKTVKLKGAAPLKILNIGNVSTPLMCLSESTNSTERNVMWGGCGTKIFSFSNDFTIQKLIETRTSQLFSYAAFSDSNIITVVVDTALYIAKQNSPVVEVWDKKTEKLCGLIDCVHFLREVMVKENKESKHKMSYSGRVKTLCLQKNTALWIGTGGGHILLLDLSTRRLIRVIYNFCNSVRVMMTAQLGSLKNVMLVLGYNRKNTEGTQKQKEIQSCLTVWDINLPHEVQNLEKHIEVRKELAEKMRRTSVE

Compound `CC(C)Oc1ccc2[nH]nc(-c3cc(N4CCN(CC5CCC(OC6CCN(c7ccc8c(c7)n(C)c(=O)n8C7CCC(=O)NC7=O)CC6)CC5)CC4)ncn3)c2c1` (stereo not drawn) [Compound 55, rel-3-[3-methyl-2-oxo-5-(4-{[(1r,4r)-4-[(4-{6-[5-(propan-2-yloxy)-1H-indazol-3-yl]pyrimidin-4-yl}piperazin-1-yl)methyl]cyclohexyl]oxy}piperidin-1-yl)-2,3-dihydro-1H-1,3-benzodiazol-1-yl]piperidine-2,6-dione] came in with a half-maximal degradation concentration (DC50) under setting [1] of 1.5 nM. Further, under setting [2], the “WT LRRK2 **Dmax (%)” value was found to be 53%.
With `Cn1c(=O)n(C2CCC(=O)NC2=O)c2ccc(N3CCC(O[C@H]4CC[C@H](CN5CCN(c6cc(-c7n[nH]c8cnc(OC9(C)CC9)cc78)ncn6)CC5)CC4)CC3)cc21` (stereo partly shown) [Compound 1, 3-[3-methyl-2-oxo-5-(4-{[(1r,4r)-4-[(4-{6-[5-(1-methylcyclopropoxy)-1H-pyrazolo[3,4-c]pyridin-3-yl]pyrimidin-4-yl}piperazin-1-yl)methyl]cyclohexyl]oxy}piperidin-1-yl)-2,3-dihydro-1H-1,3-benzodiazol-1-yl]piperidine-2,6-dione], the Dmax is 53% under setting [3] and 53% under setting [4]. The DC50 was found to be 0.14 nM under setting [1] and 0.14 nM under setting [5]. Besides, the “increase in WT LRRK2 DC50 activity when compared to Comparator Example” value (versus comparator bearing a 3-(4-methoxy-1-oxoisoindolin-2-yl)piperidine-2,6-dione group) was over 40 fold.
Compound `Cn1c(=O)n(C2CCC(=O)NC2=O)c2ccc(N3CCC(O[C@H]4CC[C@H](CN5CCN(c6cc(-c7n[nH]c8ccc(C9(C#N)CCC9)cc78)ncn6)CC5)CC4)CC3)cc21` (single isomer, unassigned) [Compound 62, rel-1-{3-[6-(4-{[(1r,4r)-4-({1-[1-(2,6-dioxopiperidin-3-yl)-3-methyl-2-oxo-2,3-dihydro-1H-1,3-benzodiazol-5-yl]piperidin-4-yl}oxy)cyclohexyl]methyl}piperazin-1-yl)pyrimidin-4-yl]-1H-indazol-5-yl}cyclobutane-1-carbonitrile] showed a Dmax under setting [3] of 54%. Under setting [1], this compound had a DC50 of 0.3 nM.
The corresponding values for `Cn1c(=O)n(C2CCC(=O)NC2=O)c2ccc(N3CCC(O[C@H]4C[C@H](COC5CCN(c6cc(-c7n[nH]c8cnc(OC9(C)CC9)cc78)ncn6)CC5)C4)CC3)cc21` (single isomer, unassigned) [Compound 34, rel-3-(3-methyl-2-oxo-5-{4-[(1r,3r)-3-{[(1-{6-[5-(1-methylcyclopropoxy)-1H-pyrazolo[3,4-c]pyridin-3-yl]pyrimidin-4-yl}piperidin-4-yl)oxy]methyl}cyclobutoxy]piperidin-1-yl}-2,3-dihydro-1H-1,3-benzodiazol-1-yl)piperidine-2,6-dione] are 57% and 0.42 nM.
Turning to `Cn1c(=O)n(C2CCC(=O)NC2=O)c2cc(Br)c(N3CCC(O[C@H]4CC[C@H](CN5CCN(c6cc(-c7n[nH]c8cnc(OC9(C)CC9)cc78)ncn6)CC5)CC4)CC3)cc21` (single isomer, unassigned) [Compound 67, rel-3-[6-bromo-3-methyl-2-oxo-5-(4-{[(1r,4r)-4-[(4-{6-[5-(1-methylcyclopropoxy)-1H-pyrazolo[3,4-c]pyridin-3-yl]pyrimidin-4-yl}piperazin-1-yl)methyl]cyclohexyl]oxy}piperidin-1-yl)-2,3-dihydro-1H-1,3-benzodiazol-1-yl]piperidine-2,6-dione], the Dmax under setting [3] was 90%. Under setting [1], this compound had a DC50 of 5.9 nM.
In the case of `Cn1c(=O)n(C2CCC(=O)NC2=O)c2ccc(N3CCC(O[C@H]4CC[C@H](CN5CCN(c6cc(-c7n[nH]c8ccc(OC9(C)CC9)cc78)ncn6)CC5)CC4)CC3)cc21` (stereo partly shown) [Compound 6, 3-[3-methyl-2-oxo-5-(4-{[(1r,4r)-4-[(4-{6-[5-(1-methylcyclopropoxy)-1H-indazol-3-yl]pyrimidin-4-yl}piperazin-1-yl)methyl]cyclohexyl]oxy}piperidin-1-yl)-2,3-dihydro-1H-1,3-benzodiazol-1-yl]piperidine-2,6-dione], the Dmax is, setting by setting: under setting [3], 58%; under setting [4], 58%. The compound also showed a DC50 under setting [1] of 0.17 nM and a DC50 under setting [5] of 0.17 nM.
For `Cn1c(=O)n(C2CCC(=O)NC2=O)c2ccc(N3CCC(O[C@H]4CC[C@H](CN5CCN(c6cc(-c7n[nH]c8cnc(C9(C#N)CC9)cc78)ncn6)CC5)CC4)CC3)cc21` (single isomer, unassigned) [Compound 23, rel-1-{3-[6-(4-{[(1r,4r)-4-({1-[1-(2,6-dioxopiperidin-3-yl)-3-methyl-2-oxo-2,3-dihydro-1H-1,3-benzodiazol-5-yl]piperidin-4-yl}oxy)cyclohexyl]methyl}piperazin-1-yl)pyrimidin-4-yl]-1H-pyrazolo[3,4-c]pyridin-5-yl}cyclopropane-1-carbonitrile], the Dmax under setting [3] is 45%. The same compound had a DC50 under setting [1] of 0.56 nM.
As to `Cn1c(=O)n(C2CCC(=O)NC2=O)c2cccc(N3CCC(CN4CCN(CC5CCN(c6cc(-c7n[nH]c8ccc(OC9(C)CC9)cc78)ncn6)CC5)C(C)(C)C4)CC3)c21` (stereo not shown) [Compound 8, 3-{4-[4-({3,3-dimethyl-4-[(1-{6-[5-(1-methylcyclopropoxy)-1H-indazol-3-yl]pyrimidin-4-yl}piperidin-4-yl)methyl]piperazin-1-yl}methyl)piperidin-1-yl]-3-methyl-2-oxo-2,3-dihydro-1H-1,3-benzodiazol-1-yl}piperidine-2,6-dione], the Dmax reads like this: under setting [3], 65%; under setting [4], 65%. The DC50 was determined as 1.2 nM under setting [1] and 1.2 nM under setting [5].
Under setting [3], `Cn1c(=O)n(C2CCC(=O)NC2=O)c2ccc(N3CCC(O[C@H]4C[C@H](CN5CCN(c6cc(-c7n[nH]c8cnc(OC9(C)CC9)cc78)ncn6)CC5)C4)CC3)cc21` (single isomer, unassigned) [Compound 35, rel-3-(3-methyl-2-oxo-5-{4-[(1r,3r)-3-[(4-{6-[5-(1-methylcyclopropoxy)-1H-pyrazolo[3,4-c]pyridin-3-yl]pyrimidin-4-yl}piperazin-1-yl)methyl]cyclobutoxy]piperidin-1-yl}-2,3-dihydro-1H-1,3-benzodiazol-1-yl)piperidine-2,6-dione] yielded a Dmax of 50%. The compound also had a DC50 under setting [1] of 0.052 nM.
As to `Cn1c(=O)n(C2CCC(=O)NC2=O)c2ccc(C3CCN([C@H]4C[C@H](OC5CCN(c6cc(-c7n[nH]c8ccc(OC9(C)CC9)cc78)ncn6)CC5)C4)CC3)cc21` (single isomer, unassigned) [Compound 37, rel-3-(3-methyl-2-oxo-5-{1-[(1r,3r)-3-[(1-{6-[5-(1-methylcyclopropoxy)-1H-indazol-3-yl]pyrimidin-4-yl}piperidin-4-yl)oxy]cyclobutyl]piperidin-4-yl}-2,3-dihydro-1H-1,3-benzodiazol-1-yl)piperidine-2,6-dione], the DC50 under setting [1] is 0.053 nM. This compound gave a Dmax under setting [2] of 64%.
Regarding `CC1(Oc2ccc3[nH]nc(-c4cc(N5CCC(CN6CCN(CC7CCN(c8cc(F)c9c(c8)ncn9C8CCC(=O)NC8=O)CC7)CC6(C)C)CC5)ncn4)c3c2)CC1` (stereo not shown) [Compound 39, 3-{5-[4-({3,3-dimethyl-4-[(1-{6-[5-(1-methylcyclopropoxy)-1H-indazol-3-yl]pyrimidin-4-yl}piperidin-4-yl)methyl]piperazin-1-yl}methyl)piperidin-1-yl]-7-fluoro-1H-1,3-benzodiazol-1-yl}piperidine-2,6-dione], the Dmax runs as follows: under setting [3], 56%; under setting [4], 56%. Moreover, it took 4.9 nM to reach half-maximal degradation under setting [1] (DC50) and the DC50 under setting [5] worked out at 4.9 nM.
